Columns and labels:
Assay type in all cases: cell-based
[1] = system: eight human cancer cell lines; assay: Average cytotoxicity across the human cancer cell line panel
Excerpt: (§1) Five serial 1:2 dilutions were made with anhydrous DMSO at 100× the final concentration used in the assay.

[2] = system: NCI/ADR RES (human breast carcinoma) cells; assay: Cell Titer-Glo cytotoxicity assay, NCI/ADR-RES
Excerpt: as §1

[3] = system: NCI-H460 (human breast carcinoma) cells; assay: Cell Titer-Glo cytotoxicity assay, NCI-H460; settings: inferred from racemate 13 vs 2
Excerpt: as §1

[4] = system: MCF7 (human breast carcinoma) cells; assay: Cell Titer-Glo cytotoxicity assay, MCF7; settings: inferred from racemate 13 vs 2
Excerpt: as §1

Q: `S=C=NCc1cccnc1` [Compound 22, 3-(isothiocyanatomethyl)pyridine] was tested. Which “increase in effectiveness relative to L-sulforaphane” value ([1]; potency in NCI/ADR RES and selectivity over NmuMG taken together) did it give?
A: ~30 fold

Q: And the “fold increase in potency over 23” value ([2]; NCI/ADR RES cells)?
A: ≤ 10 fold

Q: How did the “fold increase in potency over fully-saturated 18” value ([1]; average IC50 compared) turn out when `S=C=NCc1ccccc1` [Compound 23, 1-(isothiocyanatomethyl)benzene] was run?
A: > 3 fold

Q: For `C[S@+]([O-])CCCCN=C=S` [D-sulforaphane], which “% bioactive” value [3] is on record?
A: 14%

Q: And the “% bioactive” value [4]?
A: 0%

Q: And the “% bioactive” value ([2]; NCI/ADR RES, inferred from racemate 13 vs 2)?
A: 9%

Source: patent publication US20130116203A1, “ISOTHIOCYNATES AND GLUCOSINOLATE COMPOUNDS AND ANTI-TUMOR COMPOSITIONS CONTAINING SAME” (priority 2011, published 2013)
